Experiments:
[1] = system: markers of inflammation in blood; test: Markers of inflammation in blood (serum/plasma); assay type: in vivo, human; details: Day 32, geometric mean (%CV)
Protocol: Induced sputum was collected pre-dose on Day 1 of each treatment period (for the first treatment period, the sample could be collected up to 10 days prior to Day 1), and 2 h post-dose on Days 20, 26 and 32 (see the Additional file 1 for further detail on sputum and blood analysis methods). Blood samples were taken pre-dose on Day 1, and pre-dose and at 30 min, and 1, 1.5, 2, 3, 4, 6, 8 and 12 h post-dose on Day 32. Other pre-dose assessments on Days 1 and 32 were spirometry (forced expiratory volume in 1 s [FEV1] and forced vital capacity [FVC]), forced oscillometry, and COPD Assessment Test (CAT), with Baseline Dyspnea Index recorded on Day 1 and Transition Dyspnea Index (TDI) on Day 32. Central and peripheral airways mechanics were assessed using forced oscillometry, with the following values determined: inspiratory and expiratory resistance (at 5 and 19 Hz), inspiratory and expiratory reactance, tidal expiratory flow limitation and the percentage of flow limited breaths.
A patient had to have a minimum of one acceptable sputum sample on Day 20, 26 or 32 to be included in the sputum biomarker evaluation for that treatment period, with the available cell count and biomarker data averaged for each patient. The mean change from baseline (pre-dose on Day 1 of each treatment period) was then compared between treatments using an analysis of covariance (ANCOVA) that included treatment, patient and period as fixed effects, and baseline values as covariate. The mean change from baseline to Day 32 for biomarkers in blood were analysed using the same model as for sputum data. All data were log-transformed before analysis, and the results are presented as ratio of geometric means.
Effect of CHF6001 on inflammatory biomarkers – Additional file 1 […]
(§1) Analysis of biomarkers and CHF6001 concentration in blood
The levels of inflammatory biomarkers were evaluated from blood collected at 2 h post-dose […]
• Ex-vivo lipopolysaccharide (LPS) stimulated TNFα: 1.5 mL of blood collected into sodium heparin tubes was stimulated with 30 µL of LPS 5 µg/mL, incubated at 37C for 23 h, centrifuged at 2000 g for 10 min at 4C and plasma transferred to the central laboratory at –60 to –90C for analysis.
• Fibrinogen and MMP-3 and -9: Blood was collected into lithium heparin tubes, centrifuged at 2500 g for 15 min at 4C, and plasma transferred to the central […]
• IL-6, -16, and -18, CXCL8, TNFα, MCP-1, MIP 1β, club cell secretory protein 16 (CC16), C-reactive protein (CRP) and surfactant protein D (SP-D): Blood was collected into serum separator tubes and kept at room temperature for 30 –60 minutes to allow clotting. Samples were then centrifuged at 2000 g for 5 min at +4C and serum transferred to the central laboratory at –60 to –90C for analysis.
Levels of biomarkers were assessed as follows:
• Fibrinogen: K-Assay Fibrinogen kit, automated on the Beckman AU640 .
• IL-18, and MMP-3 and -9: PheraSTAR ELISA.
• IL-6, CXCL8, TNFα, MCP-1 and MIP-1β: Meso Scale Diagnostics v -PLEX Plus kit .
• CC16: Biovendor Elisa Kit, Oxford Biosystems.
• CRP: Randox Reagents, automated on the Beckman AU640 .
• IL-16: Meso Scale Diagnostics Sector Imager 6000.
• Serum SP-D: Sandwich Immunoassay, using PheraSTAR Plate Reader .
Validation procedures again followed those outlined for the analysis of biomarkers above. All […]
concentrations of biomarkers in human serum or plasma from regulatory studies.
Blood for the pharmacokinetic analysis was collected pre-dose and at 30 min, and 1, 1.5, 2, 3, 4, 6, 8 and 12 h post-dose on Day 32 of each treatment period. Samples were centrifuged at 2000 g for 15 min at 4C, with the resulting plasma shipped to the central laboratory at –60

[2] = Stability of CHF6001 in human sputum samples (bioanalytical validation); assay type: in vitro ADME
Protocol: Effect of CHF6001 on inflammatory biomarkers – Additional file 1
Approximately 80 to 100 cells were to be counted per square , with the number of live leukocytes, dead leukocytes and squamous cells counted.
To determine differential cell counts, the sputum cell suspension was adjusted with Dulbecco's Phosphate -Buffered Saline to give 0.5x10^6 cells/mL. A total of 75 µL was used to prepare a cytoslide, which was then centrifuged at 450 rpm for 6 min and allowed to air dry for a minimum of 30 min before being fixed with methanol for 10 min. Four slides were prepared for each sample.
Only one of the sputum samples induced at 2 h post-dose on Days 20, 26 or 32 was used to evaluate CHF6001 concentration, with the evaluation performed only if a minimum of 300 mg of residual sputum remained. Approximately 30 mg of sputum plug was transferred to a polypropylene cryotube, and was shipped in an upright position at –80C to a central laboratory for analysis. The concentration of CHF6001 was evaluated using a LC-MS/MS method following solid phase extraction. Validation procedures were the same as those listed above for biomarkers. […]
over the calibration range of 30 to 20,000 ng/mL. The precision and accuracy of the method […]
30 ng/mL and within 15% at all other concentrations. No significant matrix effects were […]
temperature (nominally +22C), after storage for 93 days in a freezer set at –80C and after four freeze-thaw cycles at nominally –80C / +22C. The method was considered to be suitable for measuring concentrations of CHF6001 in human sputum samples from […]
as §1
The levels of inflammatory biomarkers were evaluated from blood collected at 2 h post-dose

With `CS(=O)(=O)Nc1ccc(C(=O)O[C@@H](Cc2c(Cl)c[n+]([O-])cc2Cl)c2ccc(OC(F)F)c(OCC3CC3)c2)cc1OCC1CC1` [CHF6001] the “C-X-C motif chemokine ligand 8 in blood, post-baseline” value ([1]; 800 µg BID) was 13.565 (36.9), the “C-reactive protein in blood, post-baseline” value ([1]; 800 µg BID) was 3.4462 (167.3) mg/L and the “Club cell secretory protein 16 in blood, post-baseline” value ([1]; 800 µg BID) was 4.6249 (67.5) ng/mL. The “Fibrinogen in blood, post-baseline” value ([1]; 800 µg BID) was 327.0 (47.5) mg/dL, the “Interleukin 6 in blood, post-baseline” value ([1]; 800 µg BID) was 1.8740 (63.9) pg/mL and the “Interleukin 16 in blood, post-baseline” value ([1]; 800 µg BID) was 183.95 (33.6) pg/mL. For the same compound, the “Interleukin 18 in blood, post-baseline” value ([1]; 800 µg BID) was 236.46 (43.0) pg/mL, the “Macrophage inflammatory protein 1β in blood, post-baseline” value ([1]; 800 µg BID) was 107.36 (35.2) pg/mL and the “Matrix metalloproteinase 3 in blood, post-baseline” value ([1]; 800 µg BID) was 19.356 (66.9) ng/mL. The “Matrix metalloproteinase 9 in blood, post-baseline” value ([1]; 800 µg BID) was 61.69 (88.4) ng/mL, the “Monocyte chemotactic protein 1 in blood, post-baseline” value ([1]; 800 µg BID) was 308.2 (33.3) pg/mL and the “Serum surfactant protein D, post-baseline” value ([1]; 800 µg BID) was 168.55 (67.6) ng/mL. For the same compound, the “Tumour necrosis factor α in serum, post-baseline” value ([1]; 800 µg BID) was 1.9453 (31.8) pg/mL, the “C-X-C motif chemokine ligand 8 in blood, post-baseline” value ([1]; 1600 µg BID) was 13.014 (42.2) and the “C-reactive protein in blood, post-baseline” value ([1]; 1600 µg BID) was 3.7389 (135.5) mg/L. For the same compound, the “Club cell secretory protein 16 in blood, post-baseline” value ([1]; 1600 µg BID) was 4.5701 (75.3) ng/mL, the “Fibrinogen in blood, post-baseline” value ([1]; 1600 µg BID) was 367.8 (54.2) mg/dL and the “Interleukin 6 in blood, post-baseline” value ([1]; 1600 µg BID) was 1.9386 (88.8) pg/mL. For the same compound, the “Interleukin 16 in blood, post-baseline” value ([1]; 1600 µg BID) was 178.08 (30.4) pg/mL, the “Interleukin 18 in blood, post-baseline” value ([1]; 1600 µg BID) was 252.43 (40.2) pg/mL and the “Macrophage inflammatory protein 1β in blood, post-baseline” value ([1]; 1600 µg BID) was 113.88 (44.2) pg/mL. For the same compound, the “Matrix metalloproteinase 3 in blood, post-baseline” value ([1]; 1600 µg BID) was 19.565 (53.9) ng/mL, the “Matrix metalloproteinase 9 in blood, post-baseline” value ([1]; 1600 µg BID) was 52.19 (89.7) ng/mL and the “Monocyte chemotactic protein 1 in blood, post-baseline” value ([1]; 1600 µg BID) was 323.6 (31.8) pg/mL. The “Serum surfactant protein D, post-baseline” value ([1]; 1600 µg BID) was 167.66 (66.1) ng/mL, the “Tumour necrosis factor α in serum, post-baseline” value ([1]; 1600 µg BID) was 1.9302 (35.7) pg/mL and the “Storage time found stable in sputum” value ([2]; freezer set at –80C) was 93 days. For the same compound, the “Freeze-thaw cycles found stable in sputum” value ([2]; nominally –80C / +22C) was “four” and the “Time found stable in sputum” value ([2]; sample processing temperature (nominally +22C)) was “up to 24 h”.

Source: PMC6688371, “Effect of the inhaled PDE4 inhibitor CHF6001 on biomarkers of inflammation in COPD” (Respiratory Research, 2019)
